In patent US20060014712A1, “Controlled delivery of therapeutic compounds” (CeMines, Inc., priority 2004, published 2006):

Assays:
SK-MEL-28 [1] = assay: Cell counting after 7 day peptide treatment; assay type: cell-based, human; details: conc 10 µM, start count 10
Protocol: (§1) The ability to block interaction of MITF, SOX10 and STAT3 with active transcriptional complex and inhibit proliferation and stimulate apoptosis of melanoma cells were tested on human melanoma cell lines SK-MEL-28 and WM 266-4, and mouse melanoma cell line B16. Methods. Human melanoma cell lines SK-MEL-28 and WM 2664 and mouse melanoma cell line B16 were obtained from the American Tissue Culture Collection (ATCC). Cells were cultured according to recommendations of ATCC (DMEM, 10% FCS, penicillin+streptomycin) and used in experiments after two passages in the laboratory. Cells were grown in 24 well plates, each treatment in triplicates. Cells were plated 16 hours prior treatments started. Peptides were added to the media, and media was changed every day during 7 day experiment. CPP concentration was 10 μM For cell counting, cells were trypsinized (0.25% Trypsin, 2 mM EDTA) in Ca^+2, Mg^+2 free PBS. Cells were precipitated and resuspended in 100 μl of PBS, and 5 μl were removed for counting Methods. Human melanoma cell lines SK-MEL-28 and WM 266-4 were obtained from the American Tissue Culture Collection (ATCC) and were cultured according to recommendations of ATCC (DMEM, 10% FCS, penicillin+streptomycin). Human keratinocytes were obtained from Clonetics and cultured according to manufacturers protocol. Cells were used in experiments after two passages in the laboratory. Cells were grown in 24 well plates, each treatment in triplicates. Cells were plated 16 hours prior treatments started. Peptides were added to the media, and media was changed every day during 7 day experiment. CPP concentration was 10 μM. For cell counting, cells were trypsinized (0.25% Trypsin, 2 mM EDTA) in Ca, Mg free PBS. Cells were precipitated and resuspended in 100 μl of PBS, and 5 μl were removed for counting.

WM 266-4 [2] = assay: Cell counting after 7 day peptide treatment; assay type: cell-based, human; details: conc 10 µM, start count 10
Protocol: as §1, with “CPP concentration was 10 μM For cell counting, cells were trypsinized (0.25% Trypsin, 2 mM EDTA) in Ca^+2, Mg^+2 free PBS.” left out, “CPP concentration was 10 μM.” left out

B16 [3] = assay: Cell counting after 7 day peptide treatment; assay type: cell-based, mouse; details: CPP mimicking peptides, conc 10 µM, start count 10
Protocol: The ability to block interaction of MITF, SOX10 and STAT3 with active transcriptional complex and inhibit proliferation and stimulate apoptosis of melanoma cells were tested on human melanoma cell lines SK-MEL-28 and WM 266-4, and mouse melanoma cell line B16. Methods. Human melanoma cell lines SK-MEL-28 and WM 2664 and mouse melanoma cell line B16 were obtained from the American Tissue Culture Collection (ATCC). Cells were cultured according to recommendations of ATCC (DMEM, 10% FCS, penicillin+streptomycin) and used in experiments after two passages in the laboratory. Cells were grown in 24 well plates, each treatment in triplicates. Cells were plated 16 hours prior treatments started. Peptides were added to the media, and media was changed every day during 7 day experiment. […] Cells were precipitated and resuspended in 100 μl of PBS, and 5 μl were removed for counting

SK-MEL-28 [4] = assay: WST-1 test (mitochondrial activity); assay type: cell-based, human; details: conc 10 µM, untreated = 1
WM 266-4 [5] = assay: Apoptosis, Annexin V-Cy3 Apoptosis Kit; assay type: cell-based, human; details: conc 10 µM
Protocol: (§2) Methods. Human melanoma cell lines SK-MEL-28 and WM 2664 and mouse melanoma cell line B16 were obtained from the American Tissue Culture Collection (ATCC). Cells were cultured according to recommendations of ATCC (DMEM, 10% FCS, penicillin+streptomycin) and used in experiments after two passages in the laboratory. Cells were grown in 24 well plates, each treatment in triplicates. Cells were plated 16 hours prior treatments started. Peptides were added to the media, and media was changed every day during 7 day experiment. […] Methods. Human melanoma cell lines SK-MEL-28 and WM 266-4 were obtained from the American Tissue Culture Collection (ATCC) and were cultured according to recommendations of ATCC (DMEM, 10% FCS, penicillin+streptomycin). Human keratinocytes were obtained from Clonetics and cultured according to manufacturers protocol. Cells were used in experiments after two passages in the laboratory. Cells were grown in 24 well plates, each treatment in triplicates. Cells were plated 16 hours prior treatments started. Peptides were added to the media, and media was changed every day during 7 day experiment. […] Apoptosis was analyzed using Biovision Annexin V-Cy3 Apoptosis Kit according to manufacturers protocols.

B16 [6] = assay: Apoptosis, Annexin V-Cy3 Apoptosis Kit; assay type: cell-based, mouse; details: CPP mimicking peptides, conc 10 µM
Protocol: Methods. Human melanoma cell lines SK-MEL-28 and WM 2664 and mouse melanoma cell line B16 were obtained from the American Tissue Culture Collection (ATCC). Cells were cultured according to recommendations of ATCC (DMEM, 10% FCS, penicillin+streptomycin) and used in experiments after two passages in the laboratory. Cells were grown in 24 well plates, each treatment in triplicates. Cells were plated 16 hours prior treatments started. Peptides were added to the media, and media was changed every day during 7 day experiment. CPP concentration was 10 μM Apoptosis was analyzed using Biovision Annexin V-Cy3 Apoptosis Kit according to manufacturers protocols.

Dct/Trp2 promoter [7] = assay: Transient CAT assay, Dct/Trp2 proximal promoter-CAT construct in SK-MEL-28; assay type: cell-based, human; details: CPP concentration 10 μM
Protocol: (§3) SOX10 and MITF interact with the proximal promoter of Dct/Trp2 gene and induces its activity (Ludwig A. et al., FEBS Lett. 556 (1-3):236-244 (2004)). Thus, a Dct/Trp2 proximal promoter reporter construct was used to analyze effect of mimicking peptides on promoter activity using transient CAT assay.
(§4) Methods. Human melanoma cell lines SK-MEL-28 and WM 266-4 were obtained from the American Tissue Culture Collection (ATCC) and were cultured according to recommendations of ATCC (DMEM, 10% FCS, penicillin+streptomycin). Dct/Trp2 proximal promoter-CAT construct (Ludwig et al., supra) was used in all experiments.
(§5) Cells were transfected by using FuGene reagent (Roche Molecular Biochemicals) according to manufacturer's instructions. Freeze-thaw lysates of cells collected 48 h after the transfection were assayed for CAT activity as described (Pothier, F. et al., DNA Cell Biol. 11(1):83-90 (1992)). At least two different DNA preparations were tested for each plasmid. To normalize the transfection efficiencies, cells were cotransfected with pON260 expressing β-galactosidase (Spaete, R. R. and Mocarski, E. S., J. Virol. 54(3):817-24 (1985); Spaete, R. R. and Mocarski, E. S., J. Virol. 56(1):13543 (1985)). All the CAT activities were normalized to total protein and β-galatosidase activity.
(§6) Following transfection, cells were grown in 6 well plates, each treatment in triplicates. Peptides were added to the media and media was changed every day during the 7 day experiment. CPP concentration was 10 μM.

Dct/Trp2 promoter [8] = assay: Transient CAT assay, Dct/Trp2 proximal promoter-CAT construct in WM 266-4; assay type: cell-based, human; details: CPP concentration 10 μM
Protocol: as §3, §4, §5, §6

Human keratinocytes [9] = assay: Cell counting after 7 day peptide treatment; assay type: cell-based; details: keratinocyte, modified peptides, conc 10 µM, start count 10
Protocol: Methods. Human melanoma cell lines SK-MEL-28 and WM 266-4 were obtained from the American Tissue Culture Collection (ATCC) and were cultured according to recommendations of ATCC (DMEM, 10% FCS, penicillin+streptomycin). Human keratinocytes were obtained from Clonetics and cultured according to manufacturers protocol. Cells were used in experiments after two passages in the laboratory. Cells were grown in 24 well plates, each treatment in triplicates. Cells were plated 16 hours prior treatments started. Peptides were added to the media, and media was changed every day during 7 day experiment. CPP concentration was 10 μM. For cell counting, cells were trypsinized (0.25% Trypsin, 2 mM EDTA) in Ca, Mg free PBS. Cells were precipitated and resuspended in 100 μl of PBS, and 5 μl were removed for counting.

WM 266-4 [10] = assay: WST-1 test (mitochondrial activity); assay type: cell-based, human; details: modified peptides, conc 10 µM, untreated = 1
Protocol: as §2, with “WST-1 test” for “Apoptosis”, “performed” for “analyzed using Biovision Annexin V-Cy3 Apoptosis Kit according”, “measure mitochondrial activity, which can also be used as a measure of cell number.” for “manufacturers protocols.”

Human keratinocytes [11] = assay: WST-1 test (mitochondrial activity); assay type: cell-based; details: keratinocyte; modified peptides; conc 10 µM; untreated = 1
Protocol: Methods. Human melanoma cell lines SK-MEL-28 and WM 266-4 were obtained from the American Tissue Culture Collection (ATCC) and were cultured according to recommendations of ATCC (DMEM, 10% FCS, penicillin+streptomycin). Human keratinocytes were obtained from Clonetics and cultured according to manufacturers protocol. Cells were used in experiments after two passages in the laboratory. Cells were grown in 24 well plates, each treatment in triplicates. Cells were plated 16 hours prior treatments started. Peptides were added to the media, and media was changed every day during 7 day experiment. […] WST-1 test was performed to measure mitochondrial activity, which can also be used as a measure of cell number.

Human keratinocytes [12] = assay: Apoptosis, Annexin V-Cy3 Apoptosis Kit; assay type: cell-based; details: keratinocyte, modified peptides, conc 10 µM
B16 melanoma = assay: Mouse tumor xenograft model, peptide membrane patch on skin melanoma; assay type: in vivo; details: patch immersed in 100 μM peptide solution, start = 100; for tumor size change (%) 1 d: B16 s.c. in C57BL/6 mice
Protocol: The effect of modified mimicking peptides was analyzed by inducing melanomas in mouse skin by grafting suspension of melanoma cells. […] Tumor diameter was measured 1, 2, 3, 5, 7 days after treatmet started.
Methods. Mouse melanoma cell line B16 was cultured as described above, and approximately 5×10^6 cells were injected subcutaneously into the left and right limbs of three C57BL/6JOIaHsd mice.
Administration. Cellulose membrane was immersed in a solution of peptides (100 μM). Size of tumor was measured 1, 2, 3, 5 and 7 days following patch treatment. At the same time new patch was applied. All experiments were done in triplicates (3 animals per group).

[13] = modified (inhibitor/MMP2, MMP9 site) peptides

Sequence	Cell Count 7 d (SK-MEL-28 [1]; [13])	Cell Count 7 d (WM 266-4 [2]; modified peptides)	Cell Count 7 d (Human keratinocytes [9])	WST-1 7 d (SK-MEL-28 [4]; modified peptides)	WST-1 7 d (WM 266-4 [10])	WST-1 7 d (Human keratinocytes [11])	Apoptosis 7 d/% (Human keratinocytes [12])	tumor size change (%) 1 d (B16 melanoma)	tumor size change (%) 2 d (B16 melanoma)	tumor size change (%) 3 d (B16 melanoma)	tumor size change (%) 5 d (B16 melanoma)	tumor size change (%) 7 d (B16 melanoma)	also measured
RPKKRKVRRRKMQQLEQMLTALDQMRRSIVSELAGLLS [STAT3-int1]													Cell Count 7 d (SK-MEL-28 [1]; CPP mimicking peptides): 40; Cell Count 7 d (WM 266-4 [2]; CPP mimicking peptides): 34; Cell Count 7 d (B16 [3]): 59; WST-1 7 d (SK-MEL-28 [4]; CPP mimicking peptides): 0.79; Apoptosis 7 d/% (WM 266-4 [5]; CPP mimicking peptides): 10%; Apoptosis 7 d/% (B16 [6]): 28%; Dct/Trp2 promoter activity (CAT assay) (Dct/Trp2 promoter [7]): do not have significant effect; Dct/Trp2 promoter activity (CAT assay) (Dct/Trp2 promoter [8]): do not have significant effect
TTGGSSPQGLEAKRPKKRKVRRRVKRPMNAFMVWAQAARRKLADQY [SOX10-int1M]	35	22	37	0.72	0.7	0.93	6%	111%	127%	146%	171%	224%	
TTGGSSPQGLEAKRPKKRKVRRRKMQQLEQMLTALDQMRRSIVSELAGLLS [STAT3-int1M]	42		41	0.84	0.91	1	2%	109%	124%	154%	181%	217%	Apoptosis 7 d/% (WM 266-4 [5]; modified peptides): 13%
TTGGSSPQGLEAKRPKKRKVRRRQLMLEPYALDMSRIRVLSESLGLATQSG [Scr-int1M, reference compound]	48	30	40	1	1	1		109%	147%	175%	211%	272%	
